Experiments:
[1] = test system: phytoplasma and spiroplasma (corn stunt); experiment: Corn field naturally infected, foliar kasugamycin, severity of the stunts; assay type: in vivo; settings: 100 g ai/ha; for severity of the disease (percent of leaf area infected, visual): 1 application/week for 4 weeks
Description: Another major problem is corn stunt disease. S. kunkelii, a spiroplasma often referred to as corn stunt spiroplasma and a Maize bushy stunt phytoplasma (MBSP) can both survive in the maize leafhopper (Dalbulus maidis), and it causes corn stunt disease. Foliar use of insecticides can be used to partially control Dalbulus maidis, however, the use of this method to control corn stunt disease is not very successful. kasugamycin (Ksg) is an aminoglycoside antibiotic. However, we have discovered that mixing kasugamycin with pesticides can control the Dalbulus maidis and S. kunkelii at the same time thereby helping to avoid corn stunt disease brought by the vector Dalbulus maidis. The amount of kasugamycin can vary from 20 g ai/ha to 100 g ai/ha in mixture with the insecticides when used in foliar applications, for example, spinetoram and sulfoxaflor at 18 g ai/ha+32 g ai/ha respectively, or spinetoram and methomyl at 18 g ai/ha and 220 g ai/ha, respectively. However, with the bait composition the amount of kasugamycin to use in the pesticidal bait compositions, based on the total weight of a pesticidal bait composition, is from about 2.0 weight percent to about 0.01 weight percent, preferably from about 1.0 weight percent to about 0.1 weight percent, and even more preferably from about 0.5 weight percent to about 0.25 weight percent. Of course, the kasugamycin weight percent will vary depending on various factors such as, local environmental conditions and pest control effects desired, among other factors.
A corn field with plants naturally infected by both phytoplasma and spiroplasma was sprayed with kasugamycin at 100 g ai/ha. The plants with 4 true-leaves were sprayed with 1 application/week for 4 weeks. Fifteen days after the first application and 15 days after the fourth spraying the severity of the stunts were evaluated visually, considering the percent of leaf area infected (showing symptoms). […]

[2] = test system: stunts (corn stunt disease); experiment: Field corn, four foliar applications of pesticides solo and in mixture with kasugamycin, incidence of stunts and yield; assay type: in vivo; settings: four foliar applications 7 days apart from V2; 91 days after sowing
Description: Another major problem is corn stunt disease. S. kunkelii, a spiroplasma often referred to as corn stunt spiroplasma and a Maize bushy stunt phytoplasma (MBSP) can both survive in the maize leafhopper (Dalbulus maidis), and it causes corn stunt disease. Foliar use of insecticides can be used to partially control Dalbulus maidis, however, the use of this method to control corn stunt disease is not very successful. kasugamycin (Ksg) is an aminoglycoside antibiotic. However, we have discovered that mixing kasugamycin with pesticides can control the Dalbulus maidis and S. kunkelii at the same time thereby helping to avoid corn stunt disease brought by the vector Dalbulus maidis. The amount of kasugamycin can vary from 20 g ai/ha to 100 g ai/ha in mixture with the insecticides when used in foliar applications, for example, spinetoram and sulfoxaflor at 18 g ai/ha+32 g ai/ha respectively, or spinetoram and methomyl at 18 g ai/ha and 220 g ai/ha, respectively. […]
Four foliar applications of pesticides solo and in mixture with kasugamycin were performed in corn plants in field starting at V2 (2 true-leaves) stage of the crop with 7 days apart. […] The incidence of plants with symptoms of stunts at 53 and 91 days after sowing and the yield were assessed. […]

C[C@H]1O[C@H](O[C@H]2[C@H](O)[C@@H](O)[C@@H](O)[C@H](O)[C@@H]2O)[C@@H](N)C[C@@H]1NC(=N)C(=O)O [kasugamycin]
severity of the disease (percent of leaf area infected, visual) ([1]; 15 days after the fourth application): 43%
severity of the disease (percent of leaf area infected, visual) ([1]; fifteen days after the first application): 27%
reduction of the progression of the disease vs untreated ([1]; 15 days after the fourth application (43% vs 54% untreated)): 20%
reduction of the progression of the disease in comparison with the untreated [2]: 11%

From US20250351818A1, “PESTICIDAL BAIT COMPOSITION AND PROCESSES RELATED THERETO” (priority 2022, published 2025)
